According to PubChem BioAssay (NCI):
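Dose response: 5 concentrations. Exposure: 48 h. Format: 96-well plates. Endpoint: linear interpolation; highest concentration if not reached. TGI marks complete inhibition of growth.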

How the values were obtained:
Assay in all cases: NCI tumour cell line growth inhibition, 48 h
DMS 114 small cell lung = system: DMS 114 small cell lung
DMS 273 small cell lung = system: DMS 273 small cell lung
XF 498 CNS = system: XF 498 CNS
LXFL 529 NSCLC = system: LXFL 529 NSCLC
RXF-631 renal = system: RXF-631 renal
HOP-18 NSCLC = system: HOP-18 NSCLC
KM20L2 colon = system: KM20L2 colon
P388/ADR leukemia = system: P388/ADR leukemia
P388 leukemia = system: P388 leukemia
SN12K1 renal = system: SN12K1 renal

Measured: TGI

CCOC(=O)C(C)OC(=O)c1ccc(C)cc1 (centres undefined)
not listed: P388/ADR leukemia | P388 leukemia | SN12K1 renal
> 100 µM: all other assays above

O=c1oc2c(ccc3occc32)c(N2CCCCC2)c1-c1ccccc1
not listed: LXFL 529 NSCLC | RXF-631 renal
> 100 µM: all other assays above

CCOC(=O)C(=CNC(Cc1c[nH]c2ccccc12)C(=O)OC)C(=O)OCC (centres undefined)
> 100 µM: DMS 114 small cell lung | XF 498 CNS | LXFL 529 NSCLC | RXF-631 renal | HOP-18 NSCLC | KM20L2 colon

NC(N)=NS(=O)(=O)c1ccc(Nc2c3ccccc3nc3c(C(=O)N4CCN(CCO)CC4)ccc(Cl)c23)cc1
> 100 µM: DMS 114 small cell lung | XF 498 CNS | KM20L2 colon
